Reference: article PMC5412315, “Wedelolactone Acts as Proteasome Inhibitor in Breast Cancer Cells” (International Journal of Molecular Sciences, 2017)

How the values were obtained:
[1] = target: T1, 26S proteasome purified from MDA-MB-231 cells (Homo sapiens, UniProt P28074); experiment: Proteasome activity in vitro, purified 26S proteasome; format: biochemical; conditions: Suc-LLVY-AMC, 1 h, read-out: IC50, chymotrypsin-like activity
T1 construct: Human 26S proteasome was purified from 8 × 10^6 of MDA-MB-231 cells; endogenous in cells; host or cells: MDA-MB-231 cells; purified with The Rapid 26S Proteasome Purification Kit (J4310, UBPBio)
Protocol: (§1) Figure 2 Wedelolactone inhibits chymotrypsin-like, trypsin-like, and caspase-like activities of purified 26S and 20S proteasome complexes in vitro. Wedelolactone (w) was added at various concentrations to reaction mixture containing either (A) 26S proteasome purified from MDA-MB-231 cells or (B) commercially available 20S proteasome, and fluorogenic substrate (Suc-LLVY-AMC for testing chymotrypsin-like, Z-LLE-AMC for caspase-like, and Boc-LRR-AMC for trypsin-like activities). Fluorescence was measured after 1 h incubation. MG132 was used as a positive control. The data represent the mean values from three independent experiments. Error bars indicate the SD. * indicates a significant (p < 0.05) difference in proteolytic activities between reaction mixtures containing wedelolactone/MG132 and DMSO.
Human 26S proteasome was purified from 8 × 10^6 of MDA-MB-231 cells using The Rapid 26S Proteasome Purification Kit (J4310, UBPBio) according to manufacturer’s instructions.
(§2) Chymotrypsin-like, trypsin-like and caspase-like proteasome activities were determined using Proteasome Activity Fluorometric Assay Kit II (J4120, UBPBio) according to manufacturer’s instructions. […] Fluorescence was measured by TECAN infinite 200 plate reader (TECAN, Mannedorf, Switzerland) for 1 h at 37 °C.

breast cancer cell lines = test system: breast cancer cell lines; set-up: method as in PMID 21315506, PMID 22733624; conditions: all three breast cancer cell lines, at concentrations corresponding to the IC50 values; cited from earlier work
proteasome in T47D cells = target: T2, proteasome in T47D cells (Homo sapiens, UniProt P28074); experiment: Proteasome activity in cell extracts of treated T47D cells (fluorogenic substrates); format: cell-based; conditions: T47D cells treated 10 h, cell extract, Suc-LLVY-AMC; read-out: IC50, chymotrypsin-like activity of proteasome
T2 construct: endogenous in cells; host or cells: MDA-MB-231, MDA-MB-468 or T47D cells (treated 10 h, then lysed)
T2 sequence (P28074 60-263): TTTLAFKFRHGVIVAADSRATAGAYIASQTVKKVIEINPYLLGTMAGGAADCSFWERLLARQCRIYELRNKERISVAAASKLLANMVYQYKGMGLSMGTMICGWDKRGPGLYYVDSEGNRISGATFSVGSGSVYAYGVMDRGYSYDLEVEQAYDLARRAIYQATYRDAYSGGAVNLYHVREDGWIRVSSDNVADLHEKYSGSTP
T2 sequence (P28072 1-239 partner): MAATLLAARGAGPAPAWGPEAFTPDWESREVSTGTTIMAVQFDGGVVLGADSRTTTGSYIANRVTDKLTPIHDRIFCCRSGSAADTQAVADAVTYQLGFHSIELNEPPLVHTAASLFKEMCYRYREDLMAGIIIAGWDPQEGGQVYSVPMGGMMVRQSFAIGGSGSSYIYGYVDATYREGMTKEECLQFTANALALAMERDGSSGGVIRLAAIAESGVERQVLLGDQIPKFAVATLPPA
T2 sequence (Q99436 44-277 partner): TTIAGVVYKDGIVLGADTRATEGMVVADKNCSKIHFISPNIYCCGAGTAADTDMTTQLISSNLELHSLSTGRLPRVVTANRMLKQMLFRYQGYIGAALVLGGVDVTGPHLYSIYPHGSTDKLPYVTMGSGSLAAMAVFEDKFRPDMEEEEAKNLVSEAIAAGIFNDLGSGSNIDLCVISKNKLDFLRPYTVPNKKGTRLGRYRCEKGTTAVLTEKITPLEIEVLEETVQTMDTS
Protocol: (§3) Figure 1 Wedelolactone inhibits chymotrypsin-like, trypsin-like and caspase-like activities in breast cancer cells. MDA-MB-231 (A); MDA-MB-468 (B); and T47D (C) cells were treated with various concentrations of wedelolactone (w) for 10 h. Proteasome activities were evaluated in cell extracts using the activity-specific fluorogenic substrates (Suc-LLVY-AMC for testing chymotrypsin-like, Z-LLE-AMC for caspase-like, and Boc-LRR-AMC for trypsin-like activities). Treatment with MG132 served as a positive control. The data represent the mean values from three independent experiments. Error bars indicate the SD. * indicates a significant (p < 0.05) difference between wedelolactone-/MG132- and DMSO-treated cells.
(§4) MDA-MB-231, MDA-MB-468 and T47D (6 × 10^5) cells were seeded in 5 mL of culture media, exposed to various concentrations of wedelolactone, DMSO or 10 μM MG132 for 10 h. Cells were harvested, resuspended in cell lysis buffer (40 mM Tris, pH 7.2, 50 mM NaCl, 2 mM β-mercaptoethanol, 2 mM ATP, 5 mM MgCl, 10% Glycerol) and briefly sonicated using an Ultrasonic Processor UP100H (Hielscher, Ringwood, NJ, USA). Cell lysates were cleared by centrifugation and protein concentration in supernatant was determined using DC protein assay (Biorad, Hercules, CA, USA). […] Fluorescence was measured by TECAN infinite 200 plate reader (TECAN) for 1 h at 37 °C.

bovine 20S proteasome = target: T3, bovine 20S proteasome (Bos taurus, UniProt Q32KL2); experiment: Proteasome activity in vitro, commercially available 20S proteasome; format: biochemical; conditions: Suc-LLVY-AMC, 1 h, read-out: IC50, chymotrypsin-like activity
T3 construct: purchased UBPBio A1400
Protocol: as §1, §2

[2] = target: T4, proteasome in MDA-MB-468 cells (Homo sapiens, UniProt P28074); experiment: Proteasome activity in cell extracts of treated MDA-MB-468 cells (fluorogenic substrates); format: cell-based; conditions: MDA-MB-468 cells treated 10 h, cell extract, Suc-LLVY-AMC; read-out: IC50, chymotrypsin-like activity of proteasome
T4 construct: endogenous in cells; host or cells: MDA-MB-231, MDA-MB-468 or T47D cells (treated 10 h, then lysed)
T4 sequence (P28074 60-263): T2 sequence (P28074 60-263)
T4 sequence (P28072 1-239 partner): T2 sequence (P28072 1-239 partner)
T4 sequence (Q99436 44-277 partner): T2 sequence (Q99436 44-277 partner)
Protocol: as §3, §4

[3] = target: T5, proteasome in breast cancer cells (MDA-MB-231, MDA-MB-468, T47D) (Homo sapiens, UniProt P28072+P28074+Q99436); experiment: Proteasome activity in breast cancer cell lines (statements on all three lines); format: cell-based; conditions: 10 h, cell extracts
T5 construct: endogenous in cells; host or cells: MDA-MB-231, MDA-MB-468 and T47D cells; in A12 transiently transfected with hCTR1-N-Myc, with or without copper loading, while the proteasome itself stays endogenous
T5 sequence (P28074 60-263): T2 sequence (P28074 60-263)
T5 sequence (P28072 1-239): T2 sequence (P28072 1-239 partner)
T5 sequence (Q99436 44-277): T2 sequence (Q99436 44-277 partner)
Protocol: as §3, §4

[4] = test system: MDA-MB-231, MDA-MB-468 and T47D cells over-expressing CTR1; experiment: ROS production by DHE staining (flow-cytometry) in copper-loaded vs control cells; format: cell-based, human; conditions: 10 h, CTR1 overexpression with/without 25 μM copper sulfate pretreatment 24 h
Protocol: (§5) Figure 4 Copper loading enhances cytotoxicity and ROS production in wedelolactone-treated breast cancer cells. MDA-MB-231, MDA-MB-468, and T47D cells were transiently transfected with pCNDA3.1-hCTR1-N-Myc (CTR1) or control pCDNA3.1 plasmids (cmv), pretreated with copper sulfate (Cu) for 24 h and subsequently treated with wedelolactone (w) or solvent (DMSO) in fresh media. (A) Cells were harvested and expression of exogenous CTR1 protein was confirmed by SDS-PAGE followed by immunoblotting with the Myc-Tag antibody; (B) Relative copper concentration in cell lysates was analyzed by SALD ICP MS. Data for copper are presented as an integrated ^63Cu/^60Ni signal ratio. (C) Cell mortality and (D) ROS production were evaluated after PI/DHE staining using flow-cytometry. The data represent the mean values from three independent experiments. Error bars indicate the SD. * indicates a significant (p < 0.05) difference.
3 × 10^5 cells were seeded in 6-well plates. After 24 h, transient transfection was performed as described in chapter 4.6. […] Reactive oxygen species (ROS) were measured using flow-cytometry (BD FACSVerse, BD Biosciences, Franklin Lakes, NJ, USA) at an excitation wavelength of 485 nm and an emission wavelength of 538 nm. Data were analyzed using BD FACSuite software (BD Biosciences).

[5] = test system: CDKN1A, CDKN1B, TP53 and BAX genes in MDA-MB-231, MDA-MB-468 and T47D cells; experiment: qPCR of CDKN1A, CDKN1B, TP53 and BAX transcripts; format: cell-based, human; conditions: 10 h, all three cell lines
Protocol: (§6) Figure 3 Multiubiquitinated and high turnover proteins accumulate in wedelolactone-treated breast cancer cells. MDA-MB-231, MDA-MB-468, and T47D cells were treated with various concentrations of wedelolactone or solvent for 10 h. (A) Protein extracts were subsequently analyzed by SDS-PAGE and immunoblotting using p21-, p27-, p53-, Bax-, and ubiquitin-specific antibodies. Treatment with MG132 served as a positive control; (B) Transcripts of CDKN1A, CDKN1B, TP53 and BAX genes were quantified using qPCR.
1 × 10^6 cells were seeded in 5 mL dishes. Next day, the cells were exposed to various concentrations of wedelolactone or DMSO for 10 h. Cells were harvested and total RNA was isolated using GenElute Mammalian Total RNA Miniprep kit (Sigma-Aldrich). For cDNA synthesis, 1 μg of total RNA was reverse-transcribed using the QuantiTect Reverse Transcription kit (Qiagen, Hilden, Germany) according to the manufacturer’s instructions in a final reaction volume of 20 μL. Expression of CDKN1A, CDKN1B, TP53 and BAX genes was determined using the target-specific primers (Table S1) and KAPA SYBR FAST qPCR MASTER MIX (KK460, Kapa Biosystems, Cambridge, MA, USA) on LightCycler 480 II (Roche, Basel, Switzerland). Expression of the reference GAPDH gene (probe 4326317E, ThermoFisher Scientific, Waltham, MA, USA) was used for data normalization.

[6] = test system: purified 26S and 20S proteasome complexes; experiment: Proteasome activity in vitro (statements on purified 26S and 20S together); format: biochemical
Protocol: as §1, §2

[7] = target: T6, proteasome in MDA-MB-231 cells (Homo sapiens, UniProt P28074); experiment: Proteasome activity in cell extracts of treated MDA-MB-231 cells (fluorogenic substrates); format: cell-based; conditions: MDA-MB-231 cells treated 10 h, cell extract, Suc-LLVY-AMC; read-out: IC50, chymotrypsin-like activity of proteasome
T6 construct: endogenous in cells; host or cells: MDA-MB-231, MDA-MB-468 or T47D cells (treated 10 h, then lysed)
T6 sequence (P28074 60-263): T2 sequence (P28074 60-263)
T6 sequence (P28072 1-239 partner): T2 sequence (P28072 1-239 partner)
T6 sequence (Q99436 44-277 partner): T2 sequence (Q99436 44-277 partner)
Protocol: as §3, §4

[8] = test system: p21, p27, p53, Bax and multiubiquitinated proteins in MDA-MB-231, MDA-MB-468 and T47D cells; experiment: Immunoblotting of polyubiquitinated and short-lived proteins; format: cell-based, human; conditions: 10 h, all three cell lines
Protocol: as §6
5 × 10^5 cells were seeded in 6-well plates. The next day, the cells were exposed to various concentrations of wedelolactone, DMSO, or 10 μM MG132 for 10 h. Cells were harvested and lysed as described previously. Cell lysates were subjected to SDS–PAGE and immunoblotted. Sample loading was normalized according to protein concentration determined by DC protein assay (Biorad). Blots were probed with anti-ubiquitin (3933S; Cell Signaling Technology, Inc., Beverly, MA, USA), anti-p21, anti-p27 (sc-817 and sc-528; Santa Cruz Biotechnology Inc., Santa Cruz, CA, USA), anti-p53, anti-Bax or anti-Myc-Tag (9282, 5023 and 2276S; Cell Signaling Technology), anti-α-tubulin antibodies (T9026; Sigma-Aldrich), and secondary antibodies conjugated with peroxidase (Sigma-Aldrich). […]

[9] = test system: MDA-MB-231, MDA-MB-468 and T47D cells over-expressing CTR1; experiment: Cell mortality by PI exclusion assay (flow-cytometry) in copper-loaded vs control cells; format: cell-based, human; conditions: 48 h, CTR1 overexpression with/without 25 μM copper sulfate pretreatment 24 h
Protocol: as §5
3 × 10^5 cells were seeded in 6-well plates. After 24 h, transient transfection was performed, using 3 μL of Lipofectamine LTX reagent (Invitrogen) with a mixture containing 1.5 μg of pCNDA3.1-hCTR1-N-Myc or control pCDNA3.1 plasmid and 1.5 μL of PLUS reagent (Invitrogen). […] Cytotoxicity of wedelolactone was analyzed 48 h later by PI staining (1 μg/mL) using flow-cytometry as described previously.

COc1cc(O)c2c(c1)oc(=O)c1c3cc(O)c(O)cc3oc21 [Wedelolactone]
IC50 [1]: 9.97 µM
Growth arrest and apoptosis (breast cancer cell lines): induced growth arrest and apoptosis
IC50 (proteasome in T47D cells): 19.5 µM
IC50 (bovine 20S proteasome): 6.13 µM
IC50 [2]: 12.8 µM
Inhibition of chymotrypsin-like, trypsin-like and caspase-like activities of proteasome in cells [3]: inhibited all three proteolytic activities of proteasome
ROS production, effect of copper loading [4]: Copper-loaded cells produced more ROS
Expression of CDKN1A, CDKN1B, TP53 and BAX genes [5]: did not affect expression of any of these genes
Inhibition of chymotrypsin-like, trypsin-like and caspase-like activities in vitro ([6]; purified 26S and 20S proteasome, 1 h): inhibited all three proteasomal activities in vitro in a dose-dependent manner
IC50 ([6]; summary over purified 26S and 20S proteasome, read-out: IC50 values for chymotrypsin-like inhibitory activity, in vitro): < 10 µM
IC50 [7]: 27.8 µM
Level of p21, p27, p53, Bax and multiubiquitinated proteins [8]: dose-dependent accumulation
Cytotoxicity (cell mortality), effect of copper loading [9]: enhanced by copper loading
